Results taken from ChEMBL document CHEMBL4130444, “1,4-Naphthoquinones as inhibitors of Itch, a HECT domain-E3 ligase, and tumor growth suppressors in multiple myeloma” (Eur J Med Chem, 2017).

Assays:
PC-6 = test: Antiproliferative activity against human PC6 cells incubated for 48 hrs by SRB assay; type: functional; conditions: PC-6, 48 h
Homo sapiens [1] = species: Homo sapiens; test: Inhibition of UBE1/UbcH3/SCFbTrCP1/IkBa (unknown origin) assessed as protein activity at […] by electrochemiluminescence based ubiquitin profiler panel assay; set-up: scale not given: the % may be the effect or the level left
Homo sapiens [2] = species: Homo sapiens; test: Inhibition of UBE1/UbcH4/SCFbTrCP1/IkBa (unknown origin) assessed as protein activity at […] by electrochemiluminescence based ubiquitin profiler panel assay; set-up: scale not given: the % may be the effect or the level left
Homo sapiens [3] = species: Homo sapiens; test: Inhibition of UBE1/UbcH13/Uev1A/CHIP/CHIP(Auto) (unknown origin) assessed as protein activity at […] by electrochemiluminescence based ubiquitin profiler panel assay; set-up: scale not given: the % may be the effect or the level left
Mus musculus [4] = test: Toxicity in human RPMI8226 cells xenografted SCID nude mouse assessed as effect on body weight at 25 mg/kg, po dosed daily for 45 days; type: organism-based; conditions: in vivo, 1080 h
Homo sapiens [5] = species: Homo sapiens; test: Inhibition of UBE1/UbcH6/Parkin/Parkin(Auto) (unknown origin) assessed as protein activity at […] by electrochemiluminescence based ubiquitin profiler panel assay; set-up: scale not given: the % may be the effect or the level left
U-87 MG = test: Antiproliferative activity against human U87MG cells incubated for 48 hrs by SRB assay; type: functional, U-87MG ATCC
Mus musculus [6] = test: Toxicity in human RPMI8226 cells xenografted SCID nude mouse assessed as effect on body weight at 50 mg/kg, po dosed daily for 45 days; type: organism-based; conditions: in vivo, 1080 h
RPMI-8226 [7] = test: Antitumor activity against human RPMI8226 cells xenografted in SCID nude mouse assessed as inhibition of tumor growth at 25 mg/kg, po dosed daily for 45 days; type: functional; conditions: RPMI-8226, po, 1080 h, read-out: TGI
Mus musculus [8] = test: Toxicity in human RPMI8226 cells xenografted SCID nude mouse assessed as induction of adverse events at 25 mg/kg, po dosed daily for 45 days; type: organism-based; conditions: in vivo, 1080 h
Homo sapiens [9] = species: Homo sapiens; test: Inhibition of UBE1/UbcH3/SCFSkp2/Cks1/p27 (unknown origin) assessed as protein activity at […] by electrochemiluminescence based ubiquitin profiler panel assay; set-up: scale not given: the % may be the effect or the level left
Homo sapiens [10] = species: Homo sapiens; test: Inhibition of UBE1/UbcH3/SCFFbw7/Cyclin E1 (unknown origin) assessed as protein activity at […] by electrochemiluminescence based ubiquitin profiler panel assay; set-up: scale not given: the % may be the effect or the level left
Homo sapiens [11] = species: Homo sapiens; test: Inhibition of UBE1/UbcH5c/MuRF1/Cardiac Troponin (unknown origin) assessed as protein activity at […] by electrochemiluminescence based ubiquitin profiler panel assay; set-up: scale not given: the % may be the effect or the level left
[12] = Antiproliferative activity against human 33HJ-JA1 cells incubated for 48 hrs by SRB assay; type: functional
NCI-H460 = test: Antiproliferative activity against human NCI-H460 cells incubated for 48 hrs by SRB assay; type: functional; conditions: NCI-H460, 48 h
PC-3 = test: Antiproliferative activity against human PC3 cells incubated for 48 hrs by SRB assay; type: functional; conditions: PC-3, 48 h
[13] = tested on: KATO III stomach cancer cell line; test: Antiproliferative activity against human KATO III cells incubated for 48 hrs by SRB assay; type: functional
[14] = Antiproliferative activity against human ZR-75 cells incubated for 48 hrs by SRB assay; type: functional; conditions: ZR75, 48 h
Homo sapiens [15] = species: Homo sapiens; test: Inhibition of UBE1/UbcH13/Uev1A/CHIP/Hsp70 (unknown origin) assessed as protein activity at […] by electrochemiluminescence based ubiquitin profiler panel assay; set-up: scale not given: the % may be the effect or the level left
HT-29 = test: Antiproliferative activity against human HT-29 cells incubated for 48 hrs by SRB assay; type: functional; conditions: HT-29, 48 h
Homo sapiens [16] = species: Homo sapiens; test: Inhibition of UBE1/UbcH4/SCFbTrCP1/b-catenin (unknown origin) assessed as protein activity at […] by electrochemiluminescence based ubiquitin profiler panel assay; set-up: scale not given: the % may be the effect or the level left
Homo sapiens [17] = species: Homo sapiens; test: Inhibition of UBE1/UbcH13/Uev1A/CHIP/p53 (unknown origin) assessed as protein activity at […] by electrochemiluminescence based ubiquitin profiler panel assay; set-up: scale not given: the % may be the effect or the level left
Homo sapiens [18] = species: Homo sapiens; test: Inhibition of UBE1/UbcH7/Parkin/p38/JTV-1 (unknown origin) assessed as protein activity at […] by electrochemiluminescence based ubiquitin profiler panel assay; set-up: scale not given: the % may be the effect or the level left
Homo sapiens [19] = species: Homo sapiens; test: Inhibition of UBE1/UbcH4/c-Cbl/Src (unknown origin) assessed as protein activity at […] by electrochemiluminescence based ubiquitin profiler panel assay; set-up: scale not given: the % may be the effect or the level left
MOLT-4 = test: Antiproliferative activity against human MOLT4 cells incubated for 48 hrs by SRB assay; type: functional; conditions: MOLT-4, 48 h
Homo sapiens [20] = species: Homo sapiens; test: Inhibition of UBE1/UbcH4/VHL/HIF-1a (unknown origin) assessed as protein activity at […] by electrochemiluminescence based ubiquitin profiler panel assay; set-up: scale not given: the % may be the effect or the level left
A-431 = test: Antiproliferative activity against human A431 cells incubated for 48 hrs by SRB assay; type: functional; conditions: A-431, 48 h
Homo sapiens [21] = species: Homo sapiens; test: Inhibition of UBE1/UbcH6/Parkin/p38/JTV-1 (unknown origin) assessed as protein activity at […] by electrochemiluminescence based ubiquitin profiler panel assay; set-up: scale not given: the % may be the effect or the level left
BXPC-3 = test: Antiproliferative activity against human BxPC3 cells incubated for 48 hrs by SRB assay; type: functional; conditions: BXPC-3, 48 h
Homo sapiens [22] = species: Homo sapiens; test: Inhibition of UBE1/UbcH5c/MDM2/CK1d/p53 (unknown origin) assessed as protein activity at […] by electrochemiluminescence based ubiquitin profiler panel assay; set-up: scale not given: the % may be the effect or the level left
HL-60 = test: Antiproliferative activity against human HL60 cells incubated for 48 hrs by SRB assay; type: functional; conditions: HL-60, 48 h
RPMI-8226 [23] = test: Antiproliferative activity against human RPMI8226 cells incubated for 48 hrs by SRB assay; type: functional, cell-based; conditions: RPMI-8226, 48 h

**Q.** For O=C(Nc1ccncc1)c1ccc(CNC2=C(Cl)C(=O)c3ccccc3C2=O)cc1, which GI50 (PC-6) is on record?
**A.** The GI50 was 1800 nM.

**Q.** What about the Activity (Homo sapiens [1]) of the same molecule?
**A.** Its Activity is 102%.

**Q.** And the Activity (Homo sapiens [2])?
**A.** The Activity was 91%.

**Q.** And the Activity (Homo sapiens [3])?
**A.** Its Activity is 65%.

**Q.** What about the Activity (Mus musculus [4]) of the same molecule?
**A.** The Activity was “Non-Toxic”.

**Q.** And the Activity (Homo sapiens [5])?
**A.** Its Activity is 61%.

**Q.** And the GI50 (U-87 MG)?
**A.** The GI50 was 2500 nM.

**Q.** What about the Activity (Mus musculus [6]) of the same molecule?
**A.** Its Activity is “Non-Toxic”.

**Q.** What about the inhibition in vivo at 25 mg/kg (RPMI-8226 [7]) of the same molecule?
**A.** Its inhibition in vivo at 25 mg/kg is 98.3%.

**Q.** What about the Activity (Mus musculus [8]) of the same molecule?
**A.** The Activity was “Non-Toxic”.

**Q.** What about the Activity (Homo sapiens [9]) of the same molecule?
**A.** The Activity was 85%.

**Q.** And the Activity (Homo sapiens [10])?
**A.** The Activity was 104%.

**Q.** What about the Activity (Homo sapiens [11]) of the same molecule?
**A.** The Activity was 92%.

**Q.** And the GI50 [12]?
**A.** The GI50 was 1900 nM.

**Q.** And the GI50 (NCI-H460)?
**A.** The GI50 was 2900 nM.

**Q.** And the GI50 (PC-3)?
**A.** The GI50 was 2500 nM.

**Q.** What about the GI50 [13] of the same molecule?
**A.** The GI50 was 2400 nM.

**Q.** And the GI50 [14]?
**A.** Its GI50 is greater than 5000 nM.

**Q.** And the Activity (Homo sapiens [15])?
**A.** Its Activity is 93%.

**Q.** And the GI50 (HT-29)?
**A.** Its GI50 is 3800 nM.

**Q.** What about the Activity (Homo sapiens [16]) of the same molecule?
**A.** Its Activity is 68%.

**Q.** And the Activity (Homo sapiens [17])?
**A.** Its Activity is 52%.

**Q.** And the Activity (Homo sapiens [18])?
**A.** Its Activity is 72%.

**Q.** And the Activity (Homo sapiens [19])?
**A.** The Activity was 89%.

**Q.** What about the GI50 (MOLT-4) of the same molecule?
**A.** Its GI50 is 4000 nM.

**Q.** And the Activity (Homo sapiens [20])?
**A.** Its Activity is 96%.

**Q.** What about the GI50 (A-431) of the same molecule?
**A.** The GI50 was 1200 nM.

**Q.** What about the Activity (Homo sapiens [21]) of the same molecule?
**A.** Its Activity is 79%.

**Q.** And the GI50 (BXPC-3)?
**A.** The GI50 was 1200 nM.

**Q.** And the Activity (Homo sapiens [22])?
**A.** Its Activity is 75%.

**Q.** What about the GI50 (HL-60) of the same molecule?
**A.** Its GI50 is 1600 nM.

**Q.** And the IC50 (RPMI-8226 [23])?
**A.** Its IC50 is 2600 nM.
